Each structure is given as a SMILES string.

The text below walks through data of US12655125B2 (SIRONAX LTD., priority 2020, dated 2026).

The assay has as its system HT-29 cells. Put plainly: HT29 Cells 0FBS Assay In Vitro (TNF-α/SMAC mimetic/zVAD-FMK induced necroptosis, CellTiter-Glo cell viability). The note with it: Homo sapiens; HT-29 cells, FBS free medium, TNF-α (10 ng/ml), SMAC mimetic (6 uM), zVAD-FMK (10 μM), 20 hours; geometric mean EC50; read-out: Cell activity (EC50) of Compounds 1-116. In kind it is cell-based. An excerpt:
Protocol for HT29 Cells 0FBS Assay In Vitro
• Cell line: HT-29 (ATCC® HTB-38™) • Culture medium: McCOY's 5 A, Gibco, Cat No. 16600-082 • FBS, Gibco, Cat No. 10099-141C • Trypsin: Gibco, Cat No. 25200-056 • DMSO: Sigma, Cat No. 67-68-5, 1 L • Assay plate: Corning #3903 • Compound dilution plate: Corning #3357 • Inducers: TNFα, GenScript, Cat No. ZO1001-50, • SmacM, Cat. No., HY-15989, MedChemExpress (MCE) • Z_VAD FMK, TargetMol, T6013 • Cell Titer-Glo® Luminescent Cell Viability Assay Kit: Promega, Cat No. G7573 • EnVision: PerkinElmer, 2105-0010 2. Cell Seeding of HT-29 Cells • 1) HT-29 cells were checked every day to make sure they are healthy and growing as expected. They were split sub-culturing when were approximately 80% confluent. • 2) First pre-warm the culture medium of McCOY's 5 A medium (Gibco, Cat No. 16600-082) with 10% FBS (Gibco, Cat No. 10099-141C) in 37° C. water bath for at least 30 min. • 3) Growing cells to desired level of confluency 80% in a T75 flask, aspirate the medium, and wash with warm PBS two times. • 4) Add 2-3 ml fresh warm trypsin (Gibco, Cat No. 25200-056) solution. Transfer the flask to a 37° C. incubator. • 5) After 5 minutes, tap the side of the flask, and examine the flask under a microscope for lifting. If necessary, return the cells to the incubator for an additional 5-10 minutes, with occasional tapping, until lifting is complete. • 6) Quickly neutralize the trypsin reaction by adding 6-9 ml cell culture medium, then transfer the cells to sterile 15 ml conical tubes. Pellet the cells by centrifugation at 300×g for 7 minutes, then decant the supernatant. • 7) Resuspend the cells in fresh cell culture medium. Do cell counting with hemocytometer. • 8) Seed 100 μl of 5,000 cells into each well of the sterile 96-well cell culture plate (Corning 3903) and culture overnight at 37° C. with 5% C02. 3. Compounds Titration and Treatment of HT-29 Cells • 1) All batches of compounds (CPDs) (e.g., compound 1-281) were dissolved in DMSO (Dimethyl sulfoxide) as 20 mM stock solution. • 2) Take 3 ul 20 mM stock solution of CPDs to 27 ul DMSO and mix well, continue the titration ratio of 1:3 (20 ul CPDs+40 ul DMSO), e.g., to give solutions of CPDS at 6.6 mM, 2.2 mM, etc., till the 10 points end. • 3) Take out assay plates with HT-29 cells from incubator, remove all culture medium then wash 1 time with 1×PBS, and change fresh McCOY's 5 A medium of FBS free with a cocktail of TNF-α (10 ng/ml), the SMAC mimetic (6 uM) and zVAD-FMK (10 μM) to stimulate the HT-29 cells to increase pRIPK1 levels and necroptosis. • 4) Add 0.5 μL of the diluted compound to the corresponding 96-well assay plates. • 5) Incubate the assay plates for 20 hours at 37° C. with 5% C02. 4. Performing Cell Viability Detection of HT-29 Cells after Treated with Compounds • 1) The CellTiter-Glo® Luminescent Cell Viability Assay was employed to detect the ATP levels of viable HT-29 cells. • 2) Equilibrate the CellTiter-Glo® buffer and the lyophilized substrate to room temperature prior to use. • 3) Resuspend the CellTiter-Glo® substrate with CellTiter-Glo® buffer, mix by gently vortexing to obtain a homogeneous solution. • 4) Pipette 20 μl the enzyme/substrate mixture by multi-channel pipette into the 96-well assay plates from step 5) under the Compounds titration and treatment stage. • 5) Place the plates on an orbital shaker and mix the contents for 3 minutes to induce cell lysis. • 6) Then allow the plates to incubate at room temperature for 10 minutes to stabilize luminescent signal. • 7) Read and record luminescence signal with EnVision. • 8) The geometric mean EC50 of the compounds were calculated from points response dose with duplicate. In Tables 2 and 4, activity is provided as follows: +++=0.1 nM≤EC50<100 nM; ++=100 nM≤EC50<1000 nM; +=1000 nM≤EC50<10000 nM.
In the case of `Cn1ccc(-c2ncc(F)c(OC3CN(C(=O)N4N=CC[C@H]4c4cc(F)cc(F)c4)C3)n2)n1` [compound 39, (S)-(5-(3,5-difluorophenyl)-4,5-dihydro-1H-pyrazol-1-yl)(3-((5-fluoro-2-(1-methyl-1H-pyrazol-3-yl)pyrimidin-4-yl)oxy)azetidin-1-yl)methanone], the EC50 is 100 to 1000 nM. To `Cc1cn(C)c(-c2cc(OC3CN(C(=O)N4N=CC[C@H]4c4cc(F)cc(F)c4)C3)c(F)cn2)n1` [compound 40, (S)-(5-(3,5-difluorophenyl)-4,5-dihydro-1H-pyrazol-1-yl)(3-((2-(1,4-dimethyl-1H-imidazol-2-yl)-5-fluoropyridin-4-yl)oxy)azetidin-1-yl)methanone] belongs 0.1 to 100 nM.

With `Cn1nc(N)cc1-c1cc(OC2CN(C(=O)N3N=CC[C@H]3c3cc(F)cc(F)c3)C2)c(F)cn1` [compound 41, (S)-(3-((2-(3-amino-1-methyl-1H-pyrazol-5-yl)-5-fluoropyridin-4-yl)oxy)azetidin-1-yl)(5-(3,5-difluorophenyl)-4,5-dihydro-1H-pyrazol-1-yl)methanone], the EC50 was in the range of 0.1 to 100 nM. To `Cc1cnn(C)c1-c1ncc(F)c(OC2CN(C(=O)N3N=CC[C@H]3c3cc(F)cc(F)c3)C2)n1` [compound 42, (S)-(5-(3,5-difluorophenyl)-4,5-dihydro-1H-pyrazol-1-yl)(3-((2-(1,4-dimethyl-1H-pyrazol-5-yl)-5-fluoropyrimidin-4-yl)oxy)azetidin-1-yl)methanone] belongs 0.1 to 100 nM; to `Cc1cnn(C)c1-c1cc(OC2CN(C(=O)N3N=CC[C@H]3c3cc(F)cc(F)c3)C2)c(F)cn1` [compound 43, (S)-(5-(3,5-difluorophenyl)-4,5-dihydro-1H-pyrazol-1-yl)(3-((2-(1,4-dimethyl-1H-pyrazol-5-yl)-5-fluoropyridin-4-yl)oxy)azetidin-1-yl)methanone], 0.1 to 100 nM; to `Cc1ncn(C)c1-c1ccc(F)c(OC2CN(C(=O)N3N=CC[C@H]3c3cc(F)cc(F)c3)C2)n1` [compound 44, (S)-(5-(3,5-difluorophenyl)-4,5-dihydro-1H-pyrazol-1-yl)(3-((6-(1,4-dimethyl-1H-imidazol-5-yl)-3-fluoropyridin-2-yl)oxy)azetidin-1-yl)methanone], 0.1 to 100 nM.

With `Cc1ncn(C)c1-c1cc(OC2CN(C(=O)N3N=CC[C@H]3c3cc(F)cc(F)c3)C2)c(F)cn1` [compound 45, (S)-(5-(3,5-difluorophenyl)-4,5-dihydro-1H-pyrazol-1-yl)(3-((2-(1,4-dimethyl-1H-imidazol-5-yl)-5-fluoropyridin-4-yl)oxy)azetidin-1-yl)methanone], the EC50 was 0.1 to 100 nM. To `Cc1nnn(C)c1-c1ncc(F)c(OC2CN(C(=O)N3N=CC[C@H]3c3cc(F)cc(F)c3)C2)n1` [compound 46, (S)-(5-(3,5-difluorophenyl)-4,5-dihydro-1H-pyrazol-1-yl)(3-((2-(1,4-dimethyl-1H-1,2,3-triazol-5-yl)-5-fluoropyrimidin-4-yl)oxy)azetidin-1-yl)methanone] belongs 0.1 to 100 nM. Consider `Cc1nnn(C)c1-c1cc(OC2CN(C(=O)N3N=CC[C@H]3c3cc(F)cc(F)c3)C2)c(F)cn1` [compound 47, (S)-(5-(3,5-difluorophenyl)-4,5-dihydro-1H-pyrazol-1-yl)(3-((2-(1,4-dimethyl-1H-1,2,3-triazol-5-yl)-5-fluoropyridin-4-yl)oxy)azetidin-1-yl)methanone], for which the concentration giving a half-maximal response (EC50) was 0.1 to 100 nM.

For the compound `Cn1ncc(C#N)c1-c1ncc(F)c(OC2CN(C(=O)N3N=CC[C@H]3c3cc(F)cc(F)c3)C2)n1` [compound 48, (S)-5-(4-((1-(5-(3,5-difluorophenyl)-4,5-dihydro-1H-pyrazole-1-carbonyl)azetidin-3-yl)oxy)-5-fluoropyrimidin-2-yl)-1-methyl-1H-pyrazole-4-carbonitrile], the EC50 lay within 0.1 to 100 nM. In the case of `Cn1ncc(C#N)c1-c1cc(OC2CN(C(=O)N3N=CC[C@H]3c3cc(F)cc(F)c3)C2)c(F)cn1` [compound 49, (S)-5-(4-((1-(5-(3,5-difluorophenyl)-4,5-dihydro-1H-pyrazole-1-carbonyl)azetidin-3-yl)oxy)-5-fluoropyridin-2-yl)-1-methyl-1H-pyrazole-4-carbonitrile] it was 0.1 to 100 nM; in that of `COc1cnn(C)c1-c1cc(OC2CN(C(=O)N3N=CC[C@H]3c3cc(F)cc(F)c3)C2)c(F)cn1` [compound 50, (S)-(5-(3,5-difluorophenyl)-4,5-dihydro-1H-pyrazol-1-yl)(3-((5-fluoro-2-(4-methoxy-1-methyl-1H-pyrazol-5-yl)pyridin-4-yl)oxy)azetidin-1-yl)methanone], 0.1 to 100 nM; in that of `CN(C)CCOc1cnn(C)c1-c1cc(OC2CN(C(=O)N3N=CC[C@H]3c3cc(F)cc(F)c3)C2)c(F)cn1` [compound 51, (S)-(5-(3,5-difluorophenyl)-4,5-dihydro-1H-pyrazol-1-yl)(3-((2-(4-(2-(dimethylamino)ethoxy)-1-methyl-1H-pyrazol-5-yl)-5-fluoropyridin-4-yl)oxy)azetidin-1-yl)methanone], 100 to 1000 nM.

Consider `COCCOc1cnn(C)c1-c1cc(OC2CN(C(=O)N3N=CC[C@H]3c3cc(F)cc(F)c3)C2)c(F)cn1` [compound 52, (S)-(5-(3,5-difluorophenyl)-4,5-dihydro-1H-pyrazol-1-yl)(3-((5-fluoro-2-(4-(2-methoxyethoxy)-1-methyl-1H-pyrazol-5-yl)pyridin-4-yl)oxy)azetidin-1-yl)methanone], for which the EC50 is 0.1 to 100 nM. To `Cn1ncc(N)c1-c1cc(OC2CN(C(=O)N3N=CC[C@H]3c3cc(F)cc(F)c3)C2)c(F)cn1` [compound 53, (S)-(3-((2-(4-amino-1-methyl-1H-pyrazol-5-yl)-5-fluoropyridin-4-yl)oxy)azetidin-1-yl)(5-(3,5-difluorophenyl)-4,5-dihydro-1H-pyrazol-1-yl)methanone] belongs 0.1 to 100 nM; to `CNc1cnn(C)c1-c1cc(OC2CN(C(=O)N3N=CC[C@H]3c3cc(F)cc(F)c3)C2)c(F)cn1` [compound 54, (S)-(5-(3,5-difluorophenyl)-4,5-dihydro-1H-pyrazol-1-yl)(3-((5-fluoro-2-(1-methyl-4-(methylamino)-1H-pyrazol-5-yl)pyridin-4-yl)oxy)azetidin-1-yl)methanone], 0.1 to 100 nM; to `CN(C)c1cnn(C)c1-c1cc(OC2CN(C(=O)N3N=CC[C@H]3c3cc(F)cc(F)c3)C2)c(F)cn1` [compound 55, (S)-(5-(3,5-difluorophenyl)-4,5-dihydro-1H-pyrazol-1-yl)(3-((2-(4-(dimethylamino)-1-methyl-1H-pyrazol-5-yl)-5-fluoropyridin-4-yl)oxy)azetidin-1-yl)methanone], 0.1 to 100 nM.

As to `COCCNc1cnn(C)c1-c1cc(OC2CN(C(=O)N3N=CC[C@H]3c3cc(F)cc(F)c3)C2)c(F)cn1` [compound 56, (S)-(5-(3,5-difluorophenyl)-4,5-dihydro-1H-pyrazol-1-yl)(3-((5-fluoro-2-(4-((2-methoxyethyl)amino)-1-methyl-1H-pyrazol-5-yl)pyridin-4-yl)oxy)azetidin-1-yl)methanone], the EC50 is 0.1 to 100 nM.
